{"source": "patent US10238688B2", "about": "“Combination therapies for bladder cancer” (GENEDIA BIOTECH CO. LTD., priority 2015, dated 2019)", "key": {"Biu87": {"tested_on": "Biu87", "assay": "MTT cell survival / IC50, Biu87 cells", "type": "cell-based, human", "protocol": "(§1) The clinical grade of the chemotherapeutics (NCI Dictionary of Cancer Terms) was provided by the First Affiliated Hospital of Harbin Medical University: Pirarubicin (Pi, Wanle, Shenzhen), Paclitaxel (Pa, Taiji, Sichuan), Adriamycin (Ad, Pfizer, Jiangsu), Epirubicin Hydrochloride (EH, Haizheng, Zhejiang), Hydroxycamptothecin (Hy, Lishizhen, Hubei), Cisplatin (Ci, Haosen, Jiangsu), Gemcitabine (Ge, Haosen, Jiangsu) and Mitomycin (Mi, Haizheng, Zhejiang). The drug induced cell death was determined by a thiazolyl […] (MTT, 490 nm reading) based cell proliferation assay in the cultured cells following treatment by various concentrations of drugs for 72 hours. The relative chemoresistance to each drug of all cell lines was calculated with the lowest IC50 as a reference. The overall chemoresistance of each cell line was described as “chemoresistance index”, the numerator of the total relative IC50 to all the drugs over the number of drugs to rank the overall resistance state of each cell line to the six chemotherapeutics collectively.\n(§2) The relative IC50 (fold) of each drug of all nine cell lines was normalized to the lowest IC50 in the most sensitive cell line (FIG. 2G), to describe the single drug resistance of cell lines. The overall chemoresistance of each cell line, a “chemoresistance index” (the numerator of the total relative IC50 over the number of drugs) (FIG. 2G) were calculated to rank the overall resistance state of each cell line to this six chemotherapeutics.\nTwenty six-drug combinations at the indicated doses were initially generated through a random number generator (using MATLAB MathWorks©, Natick, Mass., U.S.) (The upper half of Table 1). The cell survival (% over the not drug control) of treated cells was determined and then used for a calculation of the average cumulative cell survival (%, ACS: the sum of cell survival (%) per combination divided by the number of cell lines tested). ACS<30% was used to separate the effective from the not-effective combinations."}, "SV-HUC-1": {"tested_on": "SV-HUC-1", "type": "cell-based", "protocol": "as §1, §2"}, "[1]": {"tested_on": "DNA Damage response pathway", "assay": "Cignal Finder dual-luciferase pathway reporter, DNA Damage response (5637, Biu87, UM-UC-3, H-bc, SV-HUC-1)", "type": "cell-based, human", "design": "key to Relative activity, DNA Damage reporter: firefly/renilla ratio, background (negative control) subtracted", "details": "for Relative activity, DNA Damage reporter: luc/Renluc relative to negative control reporter, single drug at 4 folds vs EH/Ci/Mi combination", "protocol": "The pathway analysis was performed with Qiagen's Cignal Finder Pathway Reporter Array systems according to the manufacturer's instructions. The pathway-focused dual-luciferase reporter construct was a mixture of an inducible transcription factor responsive firefly luciferase reporter and constitutively expressing renilla construct. Transcriptional response element (TRE) sequence response elements to each specific transcriptional factor triggered by the different signaling pathways are positioned before the TATA box of firefly luciferase reporter gene. The extent of activity of the reporter reflects the level of activity of the particular signaling pathway. CMV controlled renilla expression vector is co-transfected into the cell as an internal control. Non-inducible reporter construct that lacks the transcriptional factor binding sequence and could not be induced by any transcription factors is used as a negative control. Cells transfected with CMV directed firefly luciferase reporter gene serve as a positive control. Briefly, cells seeded in 6-well plates were transfected with Cignal finder pathway arrays according to the manufacturer's instructions (Qiagen). Then cells were seeded onto 96-well plates. […] After 6 h of incubation with the different drugs at 37° C., cells were lysed and a dual luciferase assay (for firefly and renilla luciferase) was performed using a PromegaGloMax 20/20 illuminometer. The firefly luciferase activities were normalized over the renilla luciferase activities after background activity determined by luciferase activities of negative controls was subtracted. A triple test of cell survival under these drug doses was also performed by MTT assay following 18 h incubation at 37° C. […]"}, "[2]": {"tested_on": "Cell Cycle/pRb-E2F pathway", "assay": "Cignal Finder dual-luciferase pathway reporter, Cell Cycle/pRb-E2F", "type": "cell-based, human", "details": "for Relative activity, Cell Cycle/pRb-E2F reporter: luc/Renluc relative to negative control reporter, single drug at 4 folds vs EH/Ci/Mi combination", "protocol": "The pathway analysis was performed with Qiagen's Cignal Finder Pathway Reporter Array systems according to the manufacturer's instructions. The pathway-focused dual-luciferase reporter construct was a mixture of an inducible transcription factor responsive firefly luciferase reporter and constitutively expressing renilla construct. Transcriptional response element (TRE) sequence response elements to each specific transcriptional factor triggered by the different signaling pathways are positioned before the TATA box of firefly luciferase reporter gene. The extent of activity of the reporter reflects the level of activity of the particular signaling pathway. CMV controlled renilla expression vector is co-transfected into the cell as an internal control. Non-inducible reporter construct that lacks the transcriptional factor binding sequence and could not be induced by any transcription factors is used as a negative control. Cells transfected with CMV directed firefly luciferase reporter gene serve as a positive control. Briefly, cells seeded in 6-well plates were transfected with Cignal finder pathway arrays according to the manufacturer's instructions (Qiagen). Then cells were seeded onto 96-well plates. Ci (6000 ng/mL), Mi (800 ng/mL), or EH (1000 ng/mL) and Ci/Mi/EH combination (Ci, 1500 ng/mL, Mi, 800 ng/mL and EH, 1000 ng/m L) were then added to the cells 24 h post-transfection. After 6 h of incubation with the different drugs at 37° C., cells were lysed and a dual luciferase assay (for firefly and renilla luciferase) was performed using a PromegaGloMax 20/20 illuminometer. The firefly luciferase activities were normalized over the renilla luciferase activities after background activity determined by luciferase activities of negative controls was subtracted. A triple test of cell survival under these drug doses was also performed by MTT assay following 18 h incubation at 37° C. […]"}, "[3]": {"tested_on": "nine cancer-associated signaling pathways", "assay": "Pearson correlation of collective drug-triggered pathway activities (single drug versus EH/Ci/Mi regimen)", "excerpt": "To calculate the correlation coefficients between the two cell lines, the R language statistics function “cor{stats}” was used to generate the correlation matrix between multiple cell lines.\nThis example then determined the correlation coefficient between the overall activity of these nine pathways and the chemoresistance state of these five cell lines. […] The overall state of activity of these pathways in each cell line are summarized (FIG. 4E) and the correlation coefficient of each pair of cell lines is calculated (FIG. 4F)."}}, "data": [{"smiles": "COC12C(COC(N)=O)C3=C(C(=O)C(C)=C(N)C3=O)N1CC1NC12", "note": "(stereo not shown) [Mi, [6-Amino-8a-methoxy-5-methyl-4,7-dioxo-1,1a,2,4,7,8,8a,8b-octahydroazireno [2′,3′:3,4]pyrrolo[1,2-a]indol-8-yl]methyl carbamate]", "values": [{"measurement": "Cell survival (%)", "setting": "Biu87; Biu87, Table S3, ng/ml: Pi 40, Pa 160, EH 250, Ci 1500, Mi 200, 1=Ci/Mi, 2=EH/Ci/Mi, 3=Pa/Ci/Mi, 4=Pi/Ci/Mi", "result": 42.05, "unit": "%"}, {"measurement": "Single drug 4X Cell Survival (%)", "setting": "Biu87; Biu87, ng/ml: EH 1000, Ci 6000, Mi 800, Pi 160, Pa 640, Ge 20, EH/Ci/Mi regimen", "result": 21.74, "unit": "%"}, {"measurement": "Cell survival 72 hours", "setting": "Biu87; Biu87 cells, Table 4 (A)", "result": 21.74, "unit": "%"}, {"measurement": "ACS (%)", "setting": "Biu87; Biu87 cells, Table 4 (B)", "result": 21.74, "unit": "%"}, {"measurement": "Single drug 4X Cell Survival (%)", "setting": "SV-HUC-1; SV-HUC-1, ng/ml: EH 1000, Ci 6000, Mi 800, Pi 160, Pa 640, Ge 20, EH/Ci/Mi regimen", "result": 91.17, "unit": "%"}, {"measurement": "Cell survival 72 hours", "setting": "SV-HUC-1; SV-HUC-1 cells, Table 4 (A)", "result": 91.17, "unit": "%"}, {"measurement": "ACS (%)", "setting": "SV-HUC-1; SV-HUC-1 cells, Table 4 (B)", "result": 91.17, "unit": "%"}, {"measurement": "relative drug trigged pathway activity over the no-drug level, DNA Damage", "setting": "[1]; 5637 cells", "result": 2.87, "unit": "fold"}, {"measurement": "Relative activity, DNA Damage reporter", "setting": "[1]; 5637 cells", "result": 0.63}, {"measurement": "digitalized pathway activity, DNA Damage", "setting": "[1]; Biu87 cells", "result": "0 (null (0) if neither of the above holds)"}, {"measurement": "relative drug trigged pathway activity over the no-drug level, DNA Damage", "setting": "[1]; Biu87 cells", "result": 1.35, "unit": "fold"}, {"measurement": "Relative activity, DNA Damage reporter", "setting": "[1]; Biu87 cells", "result": 2.03}, {"measurement": "digitalized pathway activity, DNA Damage", "setting": "[1]; H-bc cells", "result": "0 (null (0) if neither of the above holds)"}, {"measurement": "relative drug trigged pathway activity over the no-drug level, DNA Damage", "setting": "[1]; H-bc cells", "result": 1.08, "unit": "fold"}, {"measurement": "Relative activity, DNA Damage reporter", "setting": "[1]; H-bc cells", "result": 0.73}, {"measurement": "relative drug trigged pathway activity over the no-drug level, DNA Damage", "setting": "[1]; SV-HUC-1 cells", "result": 1.75, "unit": "fold"}, {"measurement": "Relative activity, DNA Damage reporter", "setting": "[1]; SV-HUC-1 cells", "result": 4.20}, {"measurement": "digitalized pathway activity, DNA Damage", "setting": "[1]; UM-UC-3 cells", "result": "0 (null (0) if neither of the above holds)"}, {"measurement": "Relative activity, DNA Damage reporter", "setting": "[1]; UM-UC-3 cells", "result": 4.77}, {"measurement": "relative drug trigged pathway activity over the no-drug level, DNA Damage", "setting": "[1]; Um-Uc-3 cells", "result": 1.37, "unit": "fold"}, {"measurement": "relative drug trigged pathway activity over the no-drug level, Cell Cycle/pRb-E2F", "setting": "[2]; 5637 cells", "result": 2.64, "unit": "fold"}, {"measurement": "Relative activity, Cell Cycle/pRb-E2F reporter", "setting": "[2]; 5637 cells", "result": 2.40}, {"measurement": "digitalized pathway activity, Cell Cycle/pRb-E2F", "setting": "[2]; Biu87 cells", "result": "0 (null (0) if neither of the above holds)"}, {"measurement": "relative drug trigged pathway activity over the no-drug level, Cell Cycle/pRb-E2F", "setting": "[2]; Biu87 cells", "result": 1.46, "unit": "fold"}, {"measurement": "Relative activity, Cell Cycle/pRb-E2F reporter", "setting": "[2]; Biu87 cells", "result": 0.83}, {"measurement": "relative drug trigged pathway activity over the no-drug level, Cell Cycle/pRb-E2F", "setting": "[2]; H-bc cells", "result": 0.3, "unit": "fold"}, {"measurement": "Relative activity, Cell Cycle/pRb-E2F reporter", "setting": "[2]; H-bc cells", "result": 0.92}, {"measurement": "digitalized pathway activity, Cell Cycle/pRb-E2F", "setting": "[2]; SV-HUC-1 cells", "result": "0 (null (0) if neither of the above holds)"}, {"measurement": "relative drug trigged pathway activity over the no-drug level, Cell Cycle/pRb-E2F", "setting": "[2]; SV-HUC-1 cells", "result": 1.39, "unit": "fold"}, {"measurement": "Relative activity, Cell Cycle/pRb-E2F reporter", "setting": "[2]; SV-HUC-1 cells", "result": 6.80}, {"measurement": "Relative activity, Cell Cycle/pRb-E2F reporter", "setting": "[2]; UM-UC-3 cells", "result": 2.17}, {"measurement": "relative drug trigged pathway activity over the no-drug level, Cell Cycle/pRb-E2F", "setting": "[2]; Um-Uc-3 cells", "result": 0.37, "unit": "fold"}, {"measurement": "Correlation coefficients versus EH/Ci/Mi", "setting": "[3]; 5637 cells", "result": 1}, {"measurement": "Correlation coefficients versus EH/Ci/Mi", "setting": "[3]; Biu87 cells", "result": 0.982}, {"measurement": "Correlation coefficients versus EH/Ci/Mi", "setting": "[3]; H-bc cells", "result": "−0.2773"}, {"measurement": "Correlation coefficients versus EH/Ci/Mi", "setting": "[3]; SV-HUC-1 cells", "result": 1}, {"measurement": "Correlation coefficients versus EH/Ci/Mi", "setting": "[3]; UmUc3 cells", "result": 0.982}]}]}
